{"source": "patent US20100152434A1", "about": "“Protein Kinase-binding Nucleosides and Associated Methods” (priority 2007, published 2010)", "key": {"[1]": {"test_system": "60 different human tumor cell lines (the NCI 60)", "details": "CCRF-CEM; HL-60(TB); K-562; MOLT-4; RPMI-8226; SR; A549/ATCC; HOP-62; NCI-H460; NCI-H522; COLO 205; HCT-116; HCT-15; HT29; KM12; SW-620; SF-268; SF-295; SF-539; SNB-75; U251; LOX IMVI; M14; SK-MEL-2; SK-MEL-28; SK-MEL-5; UACC-257; IGROV1; OVCAR-3; OVCAR-8; 786-0; A498; ACHN; RXF393; SN12C; PC-3; DU-145; MCF7; MDA-MB-231/ATCC; HS578T; MDA-MB-435; T-47D"}, "CCRF-CEM [2]": {"test_system": "CCRF-CEM"}, "NCI/ADR-RES [3]": {"test_system": "NCI/ADR-RES", "details": "NCI/ADR-RES"}, "T-47D [4]": {"test_system": "T-47D"}, "CCRF-CEM [5]": {"test_system": "CCRF-CEM", "assay": "cells", "details": "Homo sapiens, 48 h"}, "HOP-92": {"test_system": "HOP-92", "assay": "cells", "details": "Homo sapiens, HOP-92, 48 h"}, "NCI-H226": {"test_system": "NCI-H226", "assay": "cells", "details": "Homo sapiens, NCI-H226, 48 h"}, "NCI-H460": {"test_system": "NCI-H460", "assay": "cells", "details": "Homo sapiens, NCI-H460, 48 h"}, "NCI-H522": {"test_system": "NCI-H522", "assay": "cells", "details": "Homo sapiens, NCI-H522, 48 h"}, "HCC-2998": {"test_system": "HCC-2998", "assay": "cells", "details": "Homo sapiens, HCC 2998, 48 h"}, "SF-268": {"test_system": "SF-268", "assay": "cells", "details": "Homo sapiens, SF-268, 48 h"}, "SF-295": {"test_system": "SF-295", "assay": "cells", "details": "Homo sapiens, SF-295, 48 h"}, "LOX IMVI": {"test_system": "LOX IMVI", "assay": "cells", "details": "Homo sapiens, 48 h"}, "SK-MEL-2": {"test_system": "SK-MEL-2", "assay": "cells", "details": "Homo sapiens, SK-MEL-2, 48 h"}, "ACHN": {"test_system": "ACHN", "assay": "cells", "details": "Homo sapiens, 48 h"}, "RXF 393": {"test_system": "RXF 393", "assay": "cells", "details": "Homo sapiens, RXF 393, 48 h"}, "DU-145": {"test_system": "DU-145", "assay": "cells", "details": "Homo sapiens, DU-145, 48 h"}, "NCI/ADR-RES [6]": {"test_system": "NCI/ADR-RES", "assay": "cells", "details": "Homo sapiens, 48 h"}, "MDA-MB-435": {"test_system": "MDA-MB-435", "assay": "cells", "details": "Homo sapiens, MDA-MB-435, 48 h"}, "T-47D [7]": {"test_system": "T-47D", "assay": "cells", "details": "Homo sapiens, T47D, 48 h"}, "[8]": {"details": "Log10 Concentration −4.0, Molar"}, "[9]": {"details": "Log10 Concentration −5.0, Molar"}, "[10]": {"details": "Log10 Concentration −6.0, Molar"}, "[11]": {"details": "Log10 Concentration −7.0, Molar"}, "[12]": {"details": "Log10 Concentration −8.0, Molar"}}, "note": "Like-named read-outs stand apart in the source and are kept apart here."}
{"smiles": "CCOC(=O)C[C@@H]1C(O[Si](C)(C)C(C)(C)C)[C@H](n2cnc3c(NC(=O)Nc4ccccc4)ncnc32)O[C@@H]1CNC(=O)NC", "note": "(stereo partly drawn) [Compound 10]", "values": [{"measurement": "GI50 values (potent anticancer activities)", "setting": "[1]", "value": "low micromolar"}, {"measurement": "TGI", "setting": "CCRF-CEM [2]; 48 h", "value": "8.86E−5", "unit": "Molar"}, {"measurement": "Percent Growth", "setting": "CCRF-CEM [2]; [8]", "value": "−2", "unit": "%"}, {"measurement": "Percent Growth", "setting": "CCRF-CEM [2]; [9]", "value": 41, "unit": "%"}, {"measurement": "Percent Growth", "setting": "CCRF-CEM [2]; [10]", "value": 92, "unit": "%"}, {"measurement": "Percent Growth", "setting": "CCRF-CEM [2]; [11]", "value": 100, "unit": "%"}, {"measurement": "Percent Growth", "setting": "CCRF-CEM [2]; [12]", "value": 96, "unit": "%"}, {"measurement": "TGI", "setting": "COLO 205; 48 h", "value": ">1.00E−4", "unit": "Molar"}, {"measurement": "Percent Growth", "setting": "COLO 205; [8]", "value": 3, "unit": "%"}, {"measurement": "Percent Growth", "setting": "COLO 205; [9]", "value": 20, "unit": "%"}, {"measurement": "Percent Growth", "setting": "COLO 205; [10]", "value": 93, "unit": "%"}, {"measurement": "Percent Growth", "setting": "COLO 205; [11]", "value": 97, "unit": "%"}, {"measurement": "Percent Growth", "setting": "COLO 205; [12]", "value": 102, "unit": "%"}, {"measurement": "TGI", "setting": "U251; 48 h", "value": "2.09E−5", "unit": "Molar"}, {"measurement": "Percent Growth", "setting": "U251; [8]", "value": "−61", "unit": "%"}, {"measurement": "Percent Growth", "setting": "U251; [9]", "value": 28, "unit": "%"}, {"measurement": "Percent Growth", "setting": "U251; [10]", "value": 94, "unit": "%"}, {"measurement": "Percent Growth", "setting": "U251; [11]", "value": 95, "unit": "%"}, {"measurement": "Percent Growth", "setting": "U251; [12]", "value": 98, "unit": "%"}, {"measurement": "TGI", "setting": "SK-MEL-5; 48 h", "value": ">1.00E−4", "unit": "Molar"}, {"measurement": "Percent Growth", "setting": "SK-MEL-5; [8]", "value": 11, "unit": "%"}, {"measurement": "Percent Growth", "setting": "SK-MEL-5; [9]", "value": 28, "unit": "%"}, {"measurement": "Percent Growth", "setting": "SK-MEL-5; [10]", "value": 89, "unit": "%"}, {"measurement": "Percent Growth", "setting": "SK-MEL-5; [11]", "value": 100, "unit": "%"}, {"measurement": "Percent Growth", "setting": "SK-MEL-5; [12]", "value": 96, "unit": "%"}, {"measurement": "TGI", "setting": "IGROV1; 48 h", "value": "1.80E−5", "unit": "Molar"}, {"measurement": "Percent Growth", "setting": "IGROV1; [8]", "value": "−58", "unit": "%"}, {"measurement": "Percent Growth", "setting": "IGROV1; [9]", "value": 20, "unit": "%"}, {"measurement": "Percent Growth", "setting": "IGROV1; [10]", "value": 93, "unit": "%"}, {"measurement": "Percent Growth", "setting": "IGROV1; [11]", "value": 94, "unit": "%"}, {"measurement": "Percent Growth", "setting": "IGROV1; [12]", "value": 94, "unit": "%"}, {"measurement": "TGI", "setting": "OVCAR-4; 48 h", "value": ">1.00E−4", "unit": "Molar"}, {"measurement": "Percent Growth", "setting": "OVCAR-4; [8]", "value": 16, "unit": "%"}, {"measurement": "Percent Growth", "setting": "OVCAR-4; [9]", "value": 53, "unit": "%"}, {"measurement": "Percent Growth", "setting": "OVCAR-4; [10]", "value": 95, "unit": "%"}, {"measurement": "Percent Growth", "setting": "OVCAR-4; [11]", "value": 103, "unit": "%"}, {"measurement": "Percent Growth", "setting": "OVCAR-4; [12]", "value": 98, "unit": "%"}, {"measurement": "TGI", "setting": "MCF7; 48 h", "value": "4.51E−5", "unit": "Molar"}, {"measurement": "Percent Growth", "setting": "MCF7; [8]", "value": "−8", "unit": "%"}, {"measurement": "Percent Growth", "setting": "MCF7; [9]", "value": 16, "unit": "%"}, {"measurement": "Percent Growth", "setting": "MCF7; [10]", "value": 89, "unit": "%"}, {"measurement": "Percent Growth", "setting": "MCF7; [11]", "value": 91, "unit": "%"}, {"measurement": "Percent Growth", "setting": "MCF7; [12]", "value": 96, "unit": "%"}, {"measurement": "TGI", "setting": "NCI/ADR-RES [3]; 48 h", "value": ">1.00E−4", "unit": "Molar"}, {"measurement": "Percent Growth", "setting": "NCI/ADR-RES [3]; [8]", "value": 59, "unit": "%"}, {"measurement": "Percent Growth", "setting": "NCI/ADR-RES [3]; [9]", "value": 80, "unit": "%"}, {"measurement": "Percent Growth", "setting": "NCI/ADR-RES [3]; [10]", "value": 104, "unit": "%"}, {"measurement": "Percent Growth", "setting": "NCI/ADR-RES [3]; [11]", "value": 107, "unit": "%"}, {"measurement": "Percent Growth", "setting": "NCI/ADR-RES [3]; [12]", "value": 105, "unit": "%"}, {"measurement": "TGI", "setting": "T-47D [4]; 48 h", "value": ">1.00E−4", "unit": "Molar"}, {"measurement": "Percent Growth", "setting": "T-47D [4]; [8]", "value": 13, "unit": "%"}, {"measurement": "Percent Growth", "setting": "T-47D [4]; [9]", "value": 16, "unit": "%"}, {"measurement": "Percent Growth", "setting": "T-47D [4]; [10]", "value": 73, "unit": "%"}, {"measurement": "Percent Growth", "setting": "T-47D [4]; [11]", "value": 89, "unit": "%"}, {"measurement": "Percent Growth", "setting": "T-47D [4]; [12]", "value": 91, "unit": "%"}, {"measurement": "GI50", "setting": "CCRF-CEM [5]", "value": 6.69, "unit": "µM"}, {"measurement": "CC50", "setting": "CCRF-CEM [5]; read-out: LC50", "value": "> 100", "unit": "µM"}, {"measurement": "GI50", "setting": "HOP-92", "value": "< 0.01", "unit": "µM"}, {"measurement": "CC50", "setting": "HOP-92; read-out: LC50", "value": 41.2, "unit": "µM"}, {"measurement": "GI50", "setting": "NCI-H226", "value": "> 100", "unit": "µM"}, {"measurement": "CC50", "setting": "NCI-H226; read-out: LC50", "value": "> 100", "unit": "µM"}, {"measurement": "GI50", "setting": "NCI-H460", "value": 5.54, "unit": "µM"}, {"measurement": "CC50", "setting": "NCI-H460; read-out: LC50", "value": "> 100", "unit": "µM"}, {"measurement": "GI50", "setting": "NCI-H522", "value": 4.36, "unit": "µM"}, {"measurement": "CC50", "setting": "NCI-H522; read-out: LC50", "value": "> 100", "unit": "µM"}, {"measurement": "GI50", "setting": "HCC-2998", "value": "> 100", "unit": "µM"}, {"measurement": "CC50", "setting": "HCC-2998; read-out: LC50", "value": "> 100", "unit": "µM"}, {"measurement": "GI50", "setting": "SF-268", "value": 6.53, "unit": "µM"}, {"measurement": "CC50", "setting": "SF-268; read-out: LC50", "value": 92.5, "unit": "µM"}, {"measurement": "GI50", "setting": "SF-295", "value": 5.73, "unit": "µM"}, {"measurement": "CC50", "setting": "SF-295; read-out: LC50", "value": "> 100", "unit": "µM"}, {"measurement": "GI50", "setting": "LOX IMVI", "value": 5.46, "unit": "µM"}, {"measurement": "CC50", "setting": "LOX IMVI; read-out: LC50", "value": "> 100", "unit": "µM"}, {"measurement": "GI50", "setting": "SK-MEL-2", "value": 5.42, "unit": "µM"}, {"measurement": "CC50", "setting": "SK-MEL-2; read-out: LC50", "value": "> 100", "unit": "µM"}, {"measurement": "GI50", "setting": "ACHN", "value": 8.55, "unit": "µM"}, {"measurement": "CC50", "setting": "ACHN; read-out: LC50", "value": "> 100", "unit": "µM"}, {"measurement": "GI50", "setting": "RXF 393", "value": 2.01, "unit": "µM"}, {"measurement": "CC50", "setting": "RXF 393; read-out: LC50", "value": 19.5, "unit": "µM"}, {"measurement": "GI50", "setting": "DU-145", "value": 4.97, "unit": "µM"}, {"measurement": "CC50", "setting": "DU-145; read-out: LC50", "value": 78.4, "unit": "µM"}, {"measurement": "GI50", "setting": "NCI/ADR-RES [6]", "value": "> 100", "unit": "µM"}, {"measurement": "CC50", "setting": "NCI/ADR-RES [6]; read-out: LC50", "value": "> 100", "unit": "µM"}, {"measurement": "GI50", "setting": "MDA-MB-435", "value": 6.21, "unit": "µM"}, {"measurement": "CC50", "setting": "MDA-MB-435; read-out: LC50", "value": "> 100", "unit": "µM"}, {"measurement": "GI50", "setting": "T-47D [7]", "value": 2.55, "unit": "µM"}, {"measurement": "CC50", "setting": "T-47D [7]; read-out: LC50", "value": "> 100", "unit": "µM"}]}
